≈ marks a conversion by molar mass, not a printed value. Like-named read-outs stand apart in the source and are kept apart here.
Legend:
Staphylococcus aureus [1] = assay: Mode MIC of antibiotic and PA 1,1-Dioxide alone and in combination; assay type: cell-based
Text: (§1) As indicated hereinbefore, the compounds of formula I, wherein R^1 is hydrogen or an ester-forming residue readily hydrolyzable in vivo, are antibacterial agents of medium potency. […] The procedure which is followed is the one recommended by the International Collaborative Study on Antibiotic Sensitivity Testing (Ericcson and Sherris, Acta. Pathologica et Microbiologia Scandinav, Supp. 217, Section B: 64-68 [1971]), and employs brain heart infusion (BHI) agar and the inocula replicating device. Overnight growth tubes are diluted 100 fold for use as the standard inoculum (20,000-10,000 cells in approximately 0.002 ml. are placed on the agar surface; 20 ml. of BHI agar/dish). Twelve 2 fold dilutions of the test compound are employed, with initial concentration of the test drug being 200 mcg./ml. Single colonies are disregarded when reading plates after 18 hrs. at 37° C. The susceptibility (MIC) of the test organism is accepted as the lowest concentration of compound capable of producing complete inhibition of growth as judged by the naked eye.
(§2) The manner in which the said compounds of the formula I increase the effectiveness of a β-lactam antibiotic can be appreciated by reference to experiments in which the MIC of a given antibiotic alone, and a compound of the formula I wherein R^1 is hydrogen, alone, are measured. These MIC's are then compared with the MIC values obtained with a combination of the given antibiotic and the compound of the formula I wherein R^1 is hydrogen. […] The MIC values of combinations are measured using the method described by Barry and Sabath in "Manual of Clinical Microbiology", edited by Lenette, Spaulding and Truant, 2nd Edition, 1974, American Society for Microbiology.
(§3) From Table II, it can be seen that against 19 ampicillin-resistant strains of Staphylococcus aureus, the mode MIC of ampicillin, and of penicillanic acid 1,1-dioxide, is 200 mcg./ml. […] The other entries in Table II show enhancement of the antibacterial effectiveness of ampicillin against 26 ampicillin resistant strains of Haemophilus influenzae, 18 ampicillin resistant strains of Klebsiella pneumoniae, and 15 strains of the anerobe Bacteroides fragilis. Tables III, IV and V show enhancement of the antibacterial potency of benzylpenicillin (penicillin G) carbenicillin (α-carboxybenzylpenicillin) and cefazolin, respectively, against strains of S. aureus, H. influenzae, K. pneumoniae and Bacteroides fragilis.

Haemophilus influenzae = assay: as above; assay type: cell-based; conditions: for MIC: Haemophilus influenzae, 18 h, alone
Text: as §1, §2, §3

Klebsiella pneumoniae [2] = assay: as above; assay type: cell-based
Text: as §1, §2, §3

Bacteroides fragilis = assay: as above; assay type: cell-based
Text: as §1, §2, §3

Proteus morgani = assay: In vitro antibacterial activity (MIC), Table I; assay type: cell-based; conditions: BHI agar, 18 hrs. at 37° C.
Text: as §1

Pseudomonas putida = assay: In vitro antibacterial activity (MIC), Table I; assay type: cell-based; conditions: BHI agar, 18 hrs. at 37° C.
Text: as §1

Citrobacter freundii = assay: In vitro antibacterial activity (MIC), Table I; assay type: cell-based; conditions: BHI agar, 18 hrs. at 37° C.
Text: as §1

Staphylococcus epidermis = assay: In vitro antibacterial activity (MIC), Table I; assay type: cell-based; conditions: BHI agar, 18 hrs. at 37° C.
Text: as §1

Staphylococcus aureus [3] = assay: In vitro antibacterial activity (MIC), Table I; assay type: cell-based; conditions: BHI agar, 18 hrs. at 37° C.
Text: as §1

Streptococcus faecalis = assay: In vitro antibacterial activity (MIC), Table I; assay type: cell-based; conditions: Enterococcus faecalis; BHI agar, 18 hrs. at 37° C.
Text: as §1

Salmonella typhimurium = assay: In vitro antibacterial activity (MIC), Table I; assay type: cell-based; conditions: Salmonella enterica, BHI agar, 18 hrs. at 37° C.
Text: as §1

Pseudomonas aeruginosa = assay: In vitro antibacterial activity (MIC), Table I; assay type: cell-based; conditions: BHI agar, 18 hrs. at 37° C.
Text: as §1

Proteus mirabilis = assay: In vitro antibacterial activity (MIC), Table I; assay type: cell-based; conditions: BHI agar, 18 hrs. at 37° C.
Text: as §1

Klebsiella pneumoniae [4] = assay: In vitro antibacterial activity (MIC), Table I; assay type: cell-based; conditions: BHI agar, 18 hrs. at 37° C.
Text: as §1

Neisseria gonorrhoeae = assay: In vitro antibacterial activity (MIC), Table I; assay type: cell-based; conditions: BHI agar, 18 hrs. at 37° C.
Text: as §1

Serratia marcescens = assay: In vitro antibacterial activity (MIC), Table I; assay type: cell-based; conditions: BHI agar, 18 hrs. at 37° C.
Text: as §1

Enterobacter aerogenes = assay: In vitro antibacterial activity (MIC), Table I; assay type: cell-based; conditions: Klebsiella aerogenes; BHI agar, 18 hrs. at 37° C.
Text: as §1

Escherichia coli = assay: In vitro antibacterial activity (MIC), Table I; assay type: cell-based; conditions: BHI agar, 18 hrs. at 37° C.
Text: as §1

Streptococcus pyogenes = assay: In vitro antibacterial activity (MIC), Table I; assay type: cell-based; conditions: BHI agar, 18 hrs. at 37° C.
Text: as §1

Enterobacter clocae = assay: In vitro antibacterial activity (MIC), Table I; assay type: cell-based; conditions: BHI agar, 18 hrs. at 37° C.
Text: as §1

Hemophilus influenzae = assay: In vitro antibacterial activity (MIC), Table I; assay type: cell-based; conditions: Haemophilus influenzae; BHI agar, 18 hrs. at 37° C.
Text: as §1

Pasteurella multocida = assay: In vitro antibacterial activity (MIC), Table I; assay type: cell-based; conditions: BHI agar, 18 hrs. at 37° C.
Text: as §1

Providencia = assay: In vitro antibacterial activity (MIC), Table I; assay type: cell-based; conditions: BHI agar, 18 hrs. at 37° C.
Text: as §1

[5] = tested on: many microorganisms, particularly those which produce a β-lactamase; assay: Enhancement of antibacterial effectiveness of β-lactam antibiotics (combination MIC); assay type: cell-based; conditions: result in words; combination with β-lactam antibiotic
Description: as §2

microbial β-lactamases = assay: Inhibition of microbial β-lactamases; assay type: biochemical; conditions: result in words

With `CC1(C)[C@H](C(=O)O)N2C(=O)C[C@H]2S1(=O)=O` [Penicillanic Acid 1,1-Dioxide] the MIC (Staphylococcus aureus [1]; Staphylococcus aureus, 18 h, read-out: Mode MIC alone) was 200 µg/mL, the “Mode MIC's of ampicillin and PA 1,1-Dioxide in combination” value (Staphylococcus aureus [1]; Table II, 19 ampicillin-resistant strains, ampicillin + PA 1,1-Dioxide in combination) was 3.12 µg/mL and the Mode MIC alone (Staphylococcus aureus [1]; Table III, 20 strains) was 200 µg/mL. The Mode MIC's of penicillin G and PA 1,1-Dioxide in combination (Staphylococcus aureus [1]; Table III, 20 strains, penicillin G + PA 1,1-Dioxide in combination) was 6.25 µg/mL, the Mode MIC alone (Staphylococcus aureus [1]; Table IV, 20 strains) was 200 µg/mL and the Mode MIC's of carbenicillin and PA 1,1-Dioxide in combination (Staphylococcus aureus [1]; Table IV, 20 strains, carbenicillin + PA 1,1-Dioxide in combination) was 6.25 µg/mL. The Mode MIC's of Cefazolin and PA 1,1-Dioxide in Combination (Staphylococcus aureus [1]; Table V, 20 strains, Cefazolin + PA 1,1-Dioxide in combination) was 25 µg/mL, the Mode MIC alone (Staphylococcus aureus [1]; Table V, 20 strains) was 200 µg/mL and the MIC (Haemophilus influenzae; read-out: Mode MIC alone, Table II, 26 ampicillin resistant strains) was greater than 200 µg/mL. For the same compound, the MIC (Haemophilus influenzae; read-out: Mode MIC alone, Table III, 25 strains) was 100 µg/mL, the MIC (Haemophilus influenzae; read-out: Mode MIC alone, Table IV, 25 strains) was 100 µg/mL and the MIC (Haemophilus influenzae; read-out: Mode MIC alone, Table V, 25 strains) was 200 µg/mL. The “Mode MIC's of ampicillin and PA 1,1-Dioxide in combination” value (Haemophilus influenzae; Table II, 26 ampicillin resistant strains, ampicillin + PA 1,1-Dioxide in combination) was 3.12 µg/mL, the Mode MIC's of penicillin G and PA 1,1-Dioxide in combination (Haemophilus influenzae; Table III, 25 strains, penicillin G + PA 1,1-Dioxide in combination) was 1.56 µg/mL and the Mode MIC's of carbenicillin and PA 1,1-Dioxide in combination (Haemophilus influenzae; Table IV, 25 strains, carbenicillin + PA 1,1-Dioxide in combination) was 0.78 µg/mL. For the same compound, the Mode MIC's of Cefazolin and PA 1,1-Dioxide in Combination (Haemophilus influenzae; Table V, 25 strains, Cefazolin + PA 1,1-Dioxide in combination) was 0.2 µg/mL, the MIC (Klebsiella pneumoniae [2]; Klebsiella pneumoniae, 18 h, read-out: Mode MIC alone) was 50 µg/mL and the “Mode MIC's of ampicillin and PA 1,1-Dioxide in combination” value (Klebsiella pneumoniae [2]; Table II, 18 ampicillin resistant strains, ampicillin + PA 1,1-Dioxide in combination) was 6.25 µg/mL. The Mode MIC alone (Klebsiella pneumoniae [2]; Table III, 24 strains) was 50 µg/mL, the Mode MIC's of penicillin G and PA 1,1-Dioxide in combination (Klebsiella pneumoniae [2]; Table III, 24 strains, penicillin G + PA 1,1-Dioxide in combination) was 12.5 µg/mL and the Mode MIC alone (Klebsiella pneumoniae [2]; Table IV, 16 strains) was 50 µg/mL. For the same compound, the Mode MIC's of carbenicillin and PA 1,1-Dioxide in combination (Klebsiella pneumoniae [2]; Table IV, 16 strains, carbenicillin + PA 1,1-Dioxide in combination) was 6.25 µg/mL, the Mode MIC's of Cefazolin and PA 1,1-Dioxide in Combination (Klebsiella pneumoniae [2]; Table V, 3 strains, Cefazolin + PA 1,1-Dioxide in combination) was 25 µg/mL and the Mode MIC alone (Klebsiella pneumoniae [2]; Table V, 3 strains) was 50 µg/mL. The MIC (Bacteroides fragilis; Bacteroides fragilis, 18 h, read-out: Mode MIC alone) was 50 µg/mL, the “Mode MIC's of ampicillin and PA 1,1-Dioxide in combination” value (Bacteroides fragilis; Table II, 15 strains, ampicillin + PA 1,1-Dioxide in combination) was 0.78 µg/mL and the Mode MIC alone (Bacteroides fragilis; Table III, 15 strains) was 50 µg/mL. The Mode MIC's of penicillin G and PA 1,1-Dioxide in combination (Bacteroides fragilis; Table III, 15 strains, penicillin G + PA 1,1-Dioxide in combination) was 0.39 µg/mL, the Mode MIC alone (Bacteroides fragilis; Table IV, 15 strains) was 50 µg/mL and the Mode MIC's of carbenicillin and PA 1,1-Dioxide in combination (Bacteroides fragilis; Table IV, 15 strains, carbenicillin + PA 1,1-Dioxide in combination) was 0.78 µg/mL. It also gave a Mode MIC's of Cefazolin and PA 1,1-Dioxide in Combination (Bacteroides fragilis; Table V, 15 strains, Cefazolin + PA 1,1-Dioxide in combination) of 6.25 µg/mL, a Mode MIC alone (Bacteroides fragilis; Table V, 15 strains) of 50 µg/mL and an MIC (Proteus morgani) of 100 µg/mL (≈ 429 µM). The MIC (Pseudomonas putida) was greater than 200 µg/mL, the MIC (Citrobacter freundii) was 50 µg/mL (≈ 214 µM) and the MIC (Staphylococcus epidermis) was 200 µg/mL (≈ 857 µM). The MIC (Staphylococcus aureus [3]) was 100 µg/mL (≈ 429 µM), the MIC (Streptococcus faecalis) was greater than 200 µg/mL and the MIC (Salmonella typhimurium) was 50 µg/mL (≈ 214 µM). The MIC (Pseudomonas aeruginosa) was 200 µg/mL (≈ 857 µM), the MIC (Proteus mirabilis) was 100 µg/mL (≈ 429 µM) and the MIC (Klebsiella pneumoniae [4]) was 50 µg/mL (≈ 214 µM). It also gave an MIC (Neisseria gonorrhoeae) of 0.312 µg/mL (≈ 1.34 µM), an MIC (Serratia marcescens) of 100 µg/mL (≈ 429 µM) and an MIC (Enterobacter aerogenes) of 25 µg/mL (≈ 107 µM). The MIC (Escherichia coli) was 50 µg/mL (≈ 214 µM), the MIC (Streptococcus pyogenes) was 100 µg/mL (≈ 429 µM) and the MIC (Enterobacter clocae) was 100 µg/mL (≈ 429 µM). It also gave an MIC (Hemophilus influenzae) greater than 50 µg/mL, an MIC (Pasteurella multocida) of 50 µg/mL (≈ 214 µM) and an MIC (Providencia) of 100 µg/mL (≈ 429 µM). For the same compound, the “enhancement of antibacterial effectiveness of β-lactam antibiotics” value [5] was “enhances the effectiveness of ampicillin” and the “inhibition of microbial β-lactamases” value (microbial β-lactamases) was “potent inhibitors of microbial β-lactamases”.
